# Experiments:
# Saccharomyces cerevisiae [1] = assay: Tested for the kinetic parameter relative Kcat on Dolichyl phosphate mannose synthase
# Saccharomyces cerevisiae [2] = assay: Tested for the kinetic constant (Km) against the enzyme Dolichyl phosphate mannose synthase
compound,measurement,setting,value
C/C(=C\CC/C(C)=C/CC/C(C)=C/CC/C(C)=C/CC/C(C)=C/CC/C(C)=C/CC/C(C)=C/CCC(C)CCOP(=O)(O)O)CC/C=C(\C)CC/C=C(\C)CC/C=C(\C)CC/C=C(\C)CC/C=C(\C)CC/C=C(\C)CC/C=C(\C)CCCNc1cccc2ccccc12 (configuration not stated),k cat,Saccharomyces cerevisiae [1],1.27
same,Km,Saccharomyces cerevisiae [2],11.7 µM

# — ChEMBL document CHEMBL1133142, “Synthesis of dolichyl phosphate derivatives with fluorescent label at the omega-end of the chain, new tools to study protein glycosylation” (Bioorg Med Chem Lett, 2000)
